Like-named read-outs stand apart in the source and are kept apart here.
Legend:
HEp3 cells = test: Transwell migration with pathway inhibitors, with or without anti-CD151 antibody 1A5; type: cell-based, human
Experimental: In Vitro Transwell Migration: Tumor cells in a single cell suspension were plated into the top chamber of 8 μm transwell (Costar) inserts in the presence of serum free/insulin free media. Cell culture media containing 10% fetal bovine serum was placed in the bottom chamber to serve as a chemoattractant. Migration assays were carried out for 12 hrs in a 37° C. cell culture incubator containing 5% CO2. The top surface of the inserts was cleaned with a cotton swab soaked with PBS to remove the non-migrated cells. The transwell inserts were subsequently fixed in methanol and stained with 0.2% crystal violet. The number of migrated cells was counted in 3 independent fields under 20× magnification with a light microscope.
Transwell migration assays were performed in the presence or absence of each inhibitor together with or without the anti-CD151 antibody 1A5.

Rap1A = test: Rap1 activation assay (GTP-bound Rap1A pull-down, immunoblot); type: cell-based; settings: HEp3 cells; PKCα inhibited by pharmacological means
Experimental: Rap1 activation was analyzed using the Rap1 activation kit (Chemicon). All treatments were performed in the presence of serum free/insulin free media. Cells to be assayed were washed with ice cold PBS and lysed in RIPA like Rap1 buffer (10% glycerol, 50 mM Tris/HCl, 150 mM NaCl, 5 mM phenylmethylsulfonyl fluoride, 1 mM sodium orthovanadate). The lysates were pushed through a 25 gauge syringe and cleared by centrifugation at max speed at 4 degrees for 10 min. Equal amounts of lysates were immunoprecipitated with Ra1GDS RBD conjugated agarose beads for 45 minutes at 4° C. After washing the beads where resuspended with sample buffer and boiled for 5 minutes. The immunoprecipitates were separated by SDS-Page as mentioned above, transferred to PVDF membranes, probed with the anti-Rap1 antibody and horse radish peroxidase-conjugated secondary antibody. After washing the membranes were developed by autoradiography.
To evaluate whether Rap1A was activated in response to CD151 clustering as well as ALCAM-ALCAM ligation, HEp3 cells were treated with 1A5 or seeded on ALCAM-FC for up to 48 hrs. Active Rap1A in the cells was evaluated by immunblotting of GTP-bound Rap1A affinity purified from lysates with Ra1-GDS beads.

PC3 cells [1] = test: ALCAM expression in response to TGFβ (RT-PCR, Western blot); type: cell-based, human
Experimental: (§1) SDS-PAGE and immunoblotting. Cells (2.5×10^5) were plated in 6-well dishes. After 24 h, cells were serum starved in Opti-MEM for 16 h and then treated in the presence or absence of indicated growth factors or inhibitors, for 48 h. After that, the cells were lysed in TNE Lysis Buffer (20 mM Tris-Cl [pH 7.4], 0.5 mM EDTA, 1% Triton X-100, 150 mM NaCl, protease inhibitor cocktail (sigma), 1 mM phenylmethylsulfonyl fluoride). Total protein in the lysates was quantified using BCA assay (BioRad). Conditioned media samples were concentrated with microcon centrifugal filters (Millipore) following manufacturers protocol, which were eluted directly in 5× sample buffer for Western blot analysis. Protein loading for conditioned-medium samples for Western blot analysis was adjusted according to the total protein in cell lysates. Conditioned media and total protein was subjected to SDS-PAGE and electrophoretic transfer to polyvinylidene difluoride membranes (Immobilon P, Millipore, Inc., Bedford, Mass.). Immunodetection was done by conventional chemiluminescence
(§2) The mRNA samples were prepared from tumor cells lysed in TRI Reagent (Ambion) and purified using phenol extraction, followed by real-time polymerase chain reaction (RT-PCR). The following qPCR primers were used ALCAM, […] (forward) and […] (reverse); ADAM17, […] (forward) and […] (reverse); and glyceraldehyde-3-phosphate dehydrogenase, […] (forward) and TTCCCCATGGTGTCTGAGC (reverse).
(§3) ALCAM is proteolytically shed from PC3 cells (FIG. 21). Absence of the cytoplasmic tail confirms that the ectodomain is shed (FIG. 21A). Moreover, ALCAM is absent from PC3-derived exosomes ensuring that the ectodomain is shed and not released with cell-derived microparticles (FIG. 21B). Since prostate cancer disseminates predominantly to bone we selected cytokines thought to be involved in this process, including TGFβ. […] To further explore the response to exogenous stimulation with TGFβ, ALCAM expression in PC3 cells was compared to ALCAM expression in LNCaP cells which are unable to respond to the cytokine because they lack TGFβ receptor type I (FIGS. 23B and 23C). […] TGFβ-induced expression in PC3 cells could be abrogated with the small molecule inhibitor SB431542 (FIG. 23D, 10 μm; Sigma) while TGFβ-induced ALCAM mRNA and protein expression could be restored in LNCaP cells when the cells were transfected with dominant-active TGFβ receptor type I (FIGS. 23E and 23F).

PC3 cells [2] = test: ALCAM shedding in conditioned media of cytokine-treated cells (ELISA); type: cell-based, human; settings: PC3 concentrated conditioned media; 8 agents tested
LNCaP cells = test: ALCAM expression in response to TGFβ (RT-PCR, Western blot); type: cell-based, human; settings: lack TGFβ receptor type I
Experimental: as §1, §2, §3

[3] = In vivo ALCAM serum half-life; settings: serum injected retrorbitally in ALCAM KO mice; ELISA
Experimental: Serum was harvested from ALCAM wild-type, mixed background, mice and pooled. Combined serum collected from WT mice was injected retrorbitally in ALCAM KO mice (100 μl/mouse). ALCAM KO mice were pre-bled via saphenous vein bleed, and then bled at 10 mins, 2 hours, 4 hours, 24 hours and 48 hours (n=2/time point; total n=10). WT pooled serum was used as ELISA control to quantitatively determine ALCAM serum half-life.
To determine if tumor-derived ALCAM is the source of elevated circulating ALCAM, species-specific antibodies were used to monitor circulating levels of both host (mouse) ALCAM and tumor (human) ALCAM longitudinally during orthotopic and subcutaneous growth of PC3 cells (FIG. 24). The half-life of human ALCAM in the circulation of its mouse host was determined to confirm that tumor-derived ALCAM could act as a stable biomarker in vivo (FIG. 25).

[4] = HEp3 cells, ± anti-CD151 antibody 1A5

COc1ccc2c(c[n+](C)c3c4cc5c(cc4ccc23)OCO5)c1OC [Chelerythrin]
Transwell migration in the presence or absence of inhibitor, with or without 1A5 (HEp3 cells; [4]): allowed for migration of untreated cells but prevented 1A5 from inhibiting migration
Rap1A activation by 1A5 after PKCα disruption (Rap1A): 1A5 was unable to promote Rap1A activation

COC(=O)[C@H](CC(C)C)NC(=O)c1ccc(NC[C@@H](N)CS)cc1-c1cccc2ccccc12 [GGTI-298]
Transwell migration in the presence or absence of inhibitor, with or without 1A5 (HEp3 cells; [4]): allowed for migration of untreated cells but prevented 1A5 from inhibiting migration

NC(=O)c1ccc(-c2nc(-c3ccc4c(c3)OCO4)c(-c3ccccn3)[nH]2)cc1 [SB431542]
TGFβ-induced ALCAM expression (PC3 cells [1]; 10 μm inhibitor, 10 ng/ml TGFβ, 48 hrs): abrogated

N#CC(=C(/N)Sc1ccccc1N)/C(C#N)=C(\N)Sc1ccccc1N [U0126]
Transwell migration in the presence or absence of inhibitor, with or without 1A5 (HEp3 cells): inhibited migration independent of anti-CD151 antibody treatment

TGFβ
ALCAM shedding (PC3 cells [2]): promoted ALCAM shedding relative to overall total protein increase
response of ALCAM expression to TGFβ (LNCaP cells): did not respond
ALCAM gene transcription (quantitative RT-PCR) (PC3 cells [1]; 10 ng/ml TGFβ, 48 hrs): able to induce ALCAM gene transcription in PC3
ALCAM protein expression and ectodomain shedding (Western blot) (PC3 cells [1]; cell lysate and conditioned media): increased levels of ALCAM protein expression and ectodomain shedding

B1: ALCAM: circulating soluble Activated Leukocyte Cell Adhesion Molecule (shed ectodomain) in serum (protein, UniProt Q13740 28-527, looked up)
extracellular domain: WYTVNSAYGDTIIIPCRLDVPQNLMFGKWKYEKPDGSPVFIAFRSSTKKSVQYDDVPEYKDRLNLSENYTLSISNARISDEKRFVCMLVTEDNVFEAPTIVKVFKQPSKPEIVSKALFLETEQLKKLGDCISEDSYPDGNITWYRNGKVLHPLEGAVVIIFKKEMDPVTQLYTMTSTLEYKTTKADIQMPFTCSVTYYGPSGQKTIHSEQAVFDIYYPTEQVTIQVLPPKNAIKEGDNITLKCLGNGNPPPEEFLFYLPGQPEGIRSSNTYTLTDVRRNATGDYKCSLIDKKSMIASTAITVHYLDLSLNPSGEVTRQIGDALPVSCTISASRNATVVWMKDNIRLRSSPSFSSLHYQDAGNYVCETALQEVEGLKKRESLTLIVEGKPQIKMTKKTDPSGLSKTIICHVEGFPKPAIQWTITGSGSVINQTEESPYINGRYYSKIIISPEENVTLTCTAENQLERTVNSLNVSAISIPEHDEADEISDENREKVNDQAK
modifications: extracellular domain shed soluble form
half-life in circulation [3]: 17 h

From patent US10585102B2, “Characterization of cancer using detection of activated leukocyte cell adhesion molecule (ALCAM) shedding” (Vanderbilt University, priority 2012, dated 2020)
